What all share (assay type): cell-based
The target in assay [1] is 320 non-olfactory GPCRs (Homo sapiens, UniProt P07550).
The target in assay [2] is T1, 320 non-olfactory GPCRs (Homo sapiens, UniProt P25100).
T1 construct: expressed in transfected cells; host or cells: HTLA cells

In assay [3] the target is T2, 320 non-olfactory GPCRs (Homo sapiens, UniProt Q6U736).
T2 construct: expressed in transfected cells; host or cells: HTLA cells
The conditions noted are these: receptor OPN5; replicate values, Fig_4g.

Assay [4] has as its target T3, 320 non-olfactory GPCRs (Homo sapiens, UniProt P32245).
T3 construct: expressed in transfected cells; host or cells: HTLA cells
Conditions: receptor MC4R; replicate values, Fig_4g.

Several values for one entry are separate records, joined by “and”; a condition that tells them apart may be missing. Identical values can stand only once.
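For Fold of Basal in this document: compound tested at 1 µM final concentration.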
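For GPCRome agonism screen response in this document: fold over basal response of each receptor without drug.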

T3 sequence (P32245 whole entry): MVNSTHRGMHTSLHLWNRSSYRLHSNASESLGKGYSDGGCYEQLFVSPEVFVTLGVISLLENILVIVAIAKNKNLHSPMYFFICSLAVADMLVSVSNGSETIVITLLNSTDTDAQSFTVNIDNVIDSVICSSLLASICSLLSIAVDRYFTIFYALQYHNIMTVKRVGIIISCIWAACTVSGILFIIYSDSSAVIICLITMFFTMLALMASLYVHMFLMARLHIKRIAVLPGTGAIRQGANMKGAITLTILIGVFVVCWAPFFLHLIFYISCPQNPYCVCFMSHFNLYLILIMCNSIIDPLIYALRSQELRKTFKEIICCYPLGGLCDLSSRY
T1 sequence (P25100 whole entry): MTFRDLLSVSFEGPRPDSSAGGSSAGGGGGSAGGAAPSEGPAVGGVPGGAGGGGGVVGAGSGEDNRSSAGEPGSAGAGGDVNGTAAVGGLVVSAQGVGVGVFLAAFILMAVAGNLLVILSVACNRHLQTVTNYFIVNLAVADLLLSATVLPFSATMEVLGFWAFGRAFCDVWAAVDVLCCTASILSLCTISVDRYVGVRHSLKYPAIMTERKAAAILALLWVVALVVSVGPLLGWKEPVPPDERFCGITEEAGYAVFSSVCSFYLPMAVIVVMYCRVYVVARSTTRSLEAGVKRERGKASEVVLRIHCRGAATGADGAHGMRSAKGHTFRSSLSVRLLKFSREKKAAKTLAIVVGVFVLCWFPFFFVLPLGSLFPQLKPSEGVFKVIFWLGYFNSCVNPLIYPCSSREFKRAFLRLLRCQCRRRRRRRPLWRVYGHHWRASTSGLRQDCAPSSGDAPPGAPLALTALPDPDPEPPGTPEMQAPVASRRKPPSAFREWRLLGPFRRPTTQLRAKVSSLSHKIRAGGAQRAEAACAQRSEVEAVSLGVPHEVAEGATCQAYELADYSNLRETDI
T2 sequence (Q6U736 whole entry): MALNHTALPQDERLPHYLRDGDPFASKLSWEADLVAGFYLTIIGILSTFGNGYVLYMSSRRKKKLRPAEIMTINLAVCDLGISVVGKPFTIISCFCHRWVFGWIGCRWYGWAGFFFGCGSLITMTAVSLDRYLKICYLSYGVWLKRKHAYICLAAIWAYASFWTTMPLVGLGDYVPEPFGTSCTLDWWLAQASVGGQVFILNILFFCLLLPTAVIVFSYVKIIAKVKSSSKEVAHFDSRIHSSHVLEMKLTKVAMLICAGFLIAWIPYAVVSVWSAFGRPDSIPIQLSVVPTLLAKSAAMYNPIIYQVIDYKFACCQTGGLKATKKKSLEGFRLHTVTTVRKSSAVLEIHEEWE
Chain of 320 non-olfactory GPCRs (Homo sapiens, UniProt P07550) (P07550 whole entry): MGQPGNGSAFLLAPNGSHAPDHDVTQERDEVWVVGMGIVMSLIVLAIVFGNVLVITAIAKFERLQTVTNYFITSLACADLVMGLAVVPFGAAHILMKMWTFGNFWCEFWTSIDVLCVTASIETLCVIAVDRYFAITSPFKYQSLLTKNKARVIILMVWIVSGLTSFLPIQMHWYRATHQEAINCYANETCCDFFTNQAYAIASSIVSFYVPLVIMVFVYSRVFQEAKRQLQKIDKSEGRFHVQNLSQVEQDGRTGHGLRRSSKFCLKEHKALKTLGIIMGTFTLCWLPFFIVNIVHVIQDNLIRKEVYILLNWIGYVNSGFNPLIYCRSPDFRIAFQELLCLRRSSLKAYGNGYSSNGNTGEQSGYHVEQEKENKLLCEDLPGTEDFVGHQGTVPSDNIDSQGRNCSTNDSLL

Regarding `CCOc1cccc2cc(C(C)NCC3(O)CCCCC3)oc12` (stereo not shown) [O4LE6], the “Fold of Basal” value in assay [1] is 0.7944 and 1.208 and 1.018 and 0.6397; in assay [2] it was 1.061 and 0.9787 and 0.8777 and 0.6895. Besides, the “GPCRome agonism screen response” value is 0.05197 and 0.3541 and 1.246 and 1.464 in assay [3]; 0.7124 and 0.7559 and 1.4135 and 1.293 in assay [4].
